Results: BindingDB's records for doi:10.1021/np200492k (Seoul National University, 2011)

Assays:
[1] = molecular target: Isocitrate lyase (Candida albicans, UniProt Q9P8Q7); experiment: Inhibition of Candida albicans isocitrate lyase
[2] = molecular target: T1, Sortase family protein (Staphylococcus aureus, UniProt Q9S446); experiment: Inhibition of recombinant Staphylococcus aureus ATCC 6538p sortase lacking the N-terminal membrane anchor domain expressed in Escherichia coli cells TOP10 using Dabcyl-QALPETGEE-Edans substrate measured after 1 hr by fluorescence S13 spectrophotometry
T1 sequence (Q9S446 whole entry): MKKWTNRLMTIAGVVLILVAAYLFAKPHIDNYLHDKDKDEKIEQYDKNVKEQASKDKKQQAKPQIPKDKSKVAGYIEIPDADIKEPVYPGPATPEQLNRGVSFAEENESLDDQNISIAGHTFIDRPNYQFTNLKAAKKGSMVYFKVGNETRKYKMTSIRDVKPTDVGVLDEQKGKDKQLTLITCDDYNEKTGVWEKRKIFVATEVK

Isocitrate lyase, sequence (Q9P8Q7 whole entry, the tested form may be a part): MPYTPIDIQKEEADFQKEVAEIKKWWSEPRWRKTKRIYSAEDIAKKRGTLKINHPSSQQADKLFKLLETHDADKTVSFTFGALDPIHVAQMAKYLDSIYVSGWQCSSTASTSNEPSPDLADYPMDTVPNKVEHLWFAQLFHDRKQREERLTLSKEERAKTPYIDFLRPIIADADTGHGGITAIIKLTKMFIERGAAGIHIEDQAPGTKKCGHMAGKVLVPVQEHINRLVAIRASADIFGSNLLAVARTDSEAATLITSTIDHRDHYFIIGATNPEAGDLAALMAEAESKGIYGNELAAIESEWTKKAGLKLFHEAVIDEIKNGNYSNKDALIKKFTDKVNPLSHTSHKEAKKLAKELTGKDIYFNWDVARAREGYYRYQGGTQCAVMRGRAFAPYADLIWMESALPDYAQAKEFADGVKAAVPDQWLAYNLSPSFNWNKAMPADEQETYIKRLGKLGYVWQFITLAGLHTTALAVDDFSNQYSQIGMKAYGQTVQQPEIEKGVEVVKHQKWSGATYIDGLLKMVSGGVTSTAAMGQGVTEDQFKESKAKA

IC50 [1] [µM]	Structure (SMILES)	IC50 [2] [µM]
17	CC1(C)CCC[C@]2(C)[C@H]3CC/C(=C\OS(=O)(=O)O)[C@H](CCc4ccoc4)[C@@]3(C)CC[C@@H]12	
	O=C(O)c1cc[c]([Hg][OH])cc1	116
